Laboratory results taken from PubChem BioAssay (NCI).
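GI50 marks 50% less growth. TGI is the concentration that stops growth completely.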

Assays:
Assay in all cases: growth of human tumour cells (NCI), 384-well format
[1] = tested on: UACC-62 melanoma
[2] = tested on: SF-539 CNS
[3] = tested on: HOP-62 NSCLC
[4] = tested on: EKVX NSCLC
[5] = tested on: ACHN renal
[6] = tested on: A549 NSCLC
[7] = tested on: SK-OV-3 ovarian
[8] = tested on: HCT-116 colon
[9] = tested on: HL-60(TB) leukemia
[10] = tested on: HS 578T breast
[11] = tested on: SN12C renal
[12] = tested on: HCC-2998 colon
[13] = tested on: SF-295 CNS
[14] = tested on: NCI-H522 lung
[15] = tested on: LOX IMVI melanoma
[16] = tested on: MCF7 breast
[17] = tested on: HT29 colon
[18] = tested on: M14 melanoma
[19] = tested on: HOP-92 NSCLC
[20] = tested on: SR leukemia
[21] = tested on: MALME-3M melanoma
[22] = tested on: HCT-15 colon
[23] = tested on: PC-3 prostate
[24] = tested on: DU-145 prostate
[25] = tested on: SK-MEL-5 melanoma
[26] = tested on: SNB-75 CNS
[27] = tested on: NCI-H23 lung
[28] = tested on: SW-620 colon
[29] = tested on: SK-MEL-28 melanoma
[30] = tested on: MDA-MB-231 breast
[31] = tested on: MDA-MB-435 melanoma
[32] = tested on: OVCAR-3 ovarian
[33] = tested on: IGROV1 ovarian
[34] = tested on: NCI-H322M lung
[35] = tested on: BT-549 breast
[36] = tested on: T-47D breast
[37] = tested on: CCRF-CEM leukemia
[38] = tested on: OVCAR-8 ovarian
[39] = tested on: CAKI-1 renal
[40] = tested on: RPMI-8226 leukemia
[41] = tested on: UO-31 renal
[42] = tested on: U251 glioblastoma
[43] = tested on: MDA-MB-468 breast
[44] = tested on: KM12 colon
[45] = tested on: SF-268 CNS
[46] = tested on: SNB-19 CNS
[47] = tested on: 786-0 renal
[48] = tested on: TK-10 renal
[49] = tested on: NCI-H226 lung
[50] = tested on: OVCAR-4 ovarian
[51] = tested on: OVCAR-5 ovarian
[52] = tested on: MOLT-4 leukemia
[53] = tested on: UACC-257 melanoma
[54] = tested on: A498 renal
[55] = tested on: COLO 205 colon
[56] = tested on: NCI-H460 NSCLC
[57] = tested on: K-562 leukemia
[58] = tested on: NCI/ADR-RES ovarian
[59] = tested on: SK-MEL-2 melanoma
[60] = tested on: RXF 393 renal

## CCC1=C[C@@H]2CN(C1)Cc1c([nH]c3ccccc13)[C@@](C(=O)OC)(c1cc3c(cc1OC)N(C)[C@H]1[C@@](O)(C(=O)OC)[C@H](OC(C)=O)[C@]4(CC)C=CCN5CC[C@]31[C@@H]54)C2
[1]
  GI50: 35.9 nM
  TGI: 901 nM
[2]
  GI50: 76.5 nM
  TGI: 243 nM
[3]
  GI50: 212 nM
  TGI: 12600 nM
[4]
  GI50: 650 nM
  TGI: 16200 nM
[5]
  GI50: 2770 nM
  TGI: 24500 nM
[6]
  GI50: 270 nM
  TGI: 11800 nM
[7]
  GI50: 113 nM
  TGI: 5850 nM
[8]
  GI50: 73.9 nM
  TGI: 3920 nM
[9]
  GI50: 20.1 nM
  TGI: 37.8 nM
[10]
  GI50: 63.3 nM
  TGI: 174 nM
[11]
  GI50: 210 nM
  TGI: 20100 nM
[12]
  GI50: 66.7 nM
  TGI: 286 nM
[13]
  GI50: 95.1 nM
  TGI: 239 nM
[14]
  GI50: 20.9 nM
  TGI: 46.2 nM
[15]
  GI50: 171 nM
  TGI: 9700 nM
[16]
  GI50: 65.1 nM
  TGI: 4760 nM
[17]
  GI50: 58.5 nM
  TGI: 1100 nM
[18]
  GI50: 214 nM
  TGI: 13400 nM
[19]
  GI50: 993 nM
  TGI: 11900 nM
[20]
  GI50: < 10 nM
  TGI: 16.1 nM
[21]
  GI50: 120 nM
  TGI: 18700 nM
[22]
  GI50: 971 nM
  TGI: 8150 nM
[23]
  GI50: 210 nM
  TGI: 12600 nM
[24]
  GI50: 139 nM
  TGI: 1740 nM
[25]
  GI50: 22 nM
  TGI: 49.4 nM
[26]
  GI50: 48.8 nM
  TGI: 126 nM
[27]
  GI50: 251 nM
  TGI: 881 nM
[28]
  GI50: 155 nM
  TGI: 15100 nM
[29]
  GI50: 1520 nM
  TGI: 16100 nM
[30]
  GI50: 314 nM
  TGI: 14200 nM
[31]
  GI50: 15.5 nM
  TGI: 47.2 nM
[32]
  GI50: 34.3 nM
  TGI: 171 nM
[33]
  GI50: 652 nM
  TGI: > 32700 nM
[34]
  GI50: 645 nM
  TGI: 17800 nM
[35]
  GI50: 64.3 nM
  TGI: 710 nM
[36]
  GI50: 10600 nM
  TGI: 25500 nM
[37]
  GI50: 53.5 nM
  TGI: 104 nM
[38]
  GI50: 237 nM
  TGI: 768 nM
[39]
  GI50: 651 nM
  TGI: 8980 nM
[40]
  GI50: 33.6 nM
  TGI: 83.4 nM
[41]
  GI50: 4510 nM
  TGI: 17900 nM
[42]
  GI50: 75.4 nM
  TGI: 1810 nM
[43]
  GI50: 17.4 nM
  TGI: 35.5 nM
[44]
  GI50: 50.8 nM
  TGI: 4300 nM
[45]
  GI50: 228 nM
  TGI: 12900 nM
[46]
  GI50: 180 nM
  TGI: 4700 nM
[47]
  GI50: 367 nM
  TGI: 6050 nM
[48]
  GI50: 1110 nM
  TGI: 18600 nM
[49]
  GI50: 681 nM
  TGI: 18600 nM
[50]
  GI50: 2670 nM
  TGI: > 62600 nM
[51]
  GI50: 638 nM
  TGI: 19700 nM
[52]
  GI50: 20.2 nM
  TGI: 36.6 nM
[53]
  GI50: 1260 nM
  TGI: 15400 nM
[54]
  GI50: 203 nM
  TGI: 2390 nM
[55]
  GI50: 51.6 nM
  TGI: 506 nM
[56]
  GI50: 69.4 nM
  TGI: 220 nM
[57]
  GI50: 42.1 nM
  TGI: 174 nM
[58]
  GI50: 24800 nM
  TGI: > 64300 nM
[59]
  GI50: 37 nM
  TGI: 216 nM

## CC[C@@]1(O)C(=O)OCc2c1cc1n(c2=O)Cc2cc3c(CN(C)C)c(O)ccc3nc2-1
[1]
  GI50: 16 nM
  TGI: 63.2 nM
[2]
  GI50: 16.7 nM
  TGI: 42.6 nM
[3]
  TGI: 17.5 nM
[4]
  GI50: 366 nM
  TGI: 1860 nM
[5]
  GI50: 20.4 nM
  TGI: 47 nM
[6]
  GI50: 50.1 nM
  TGI: 1220 nM
[7]
  GI50: 31.6 nM
  TGI: 129 nM
[8]
  TGI: 222 nM
[9]
  GI50: < 11.3 nM
  TGI: 23.9 nM
[10]
  GI50: < 39.9 nM
  TGI: 715 nM
[11]
  GI50: 22 nM
  TGI: 75.3 nM
[12]
  GI50: 118 nM
  TGI: 311 nM
[13]
  GI50: < 13.1 nM
  TGI: 26.5 nM
[14]
  GI50: 19.8 nM
  TGI: 236 nM
[15]
  GI50: 11.4 nM
  TGI: 142 nM
[16]
  GI50: < 15.7 nM
  TGI: 3480 nM
[17]
  GI50: 49.6 nM
  TGI: 200 nM
[18]
  GI50: 20.6 nM
  TGI: 64.7 nM
[19]
  GI50: 32.4 nM
  TGI: 266 nM
[21]
  GI50: 130 nM
  TGI: 996 nM
[22]
  GI50: 50.7 nM
  TGI: 1130 nM
[23]
  GI50: 385 nM
  TGI: > 36600 nM
[24]
  TGI: 37.4 nM
[25]
  GI50: 23.6 nM
  TGI: 69.1 nM
[26]
  GI50: 25.2 nM
  TGI: 60 nM
[27]
  GI50: 18.8 nM
  TGI: 56.5 nM
[28]
  GI50: < 16.6 nM
  TGI: 637 nM
[29]
  GI50: 72.1 nM
  TGI: 1290 nM
[30]
  GI50: 182 nM
  TGI: 781 nM
[31]
  GI50: 181 nM
  TGI: 619 nM
[32]
  GI50: 53.3 nM
  TGI: 282 nM
[33]
  GI50: 66.4 nM
  TGI: 749 nM
[34]
  GI50: 143 nM
  TGI: 451 nM
[35]
  GI50: < 15.6 nM
  TGI: 71.5 nM
[36]
  GI50: 21.8 nM
  TGI: 790 nM
[38]
  GI50: 17.1 nM
  TGI: 180 nM
[39]
  GI50: 22.7 nM
  TGI: 247 nM
[40]
  GI50: 28.6 nM
  TGI: 80.9 nM
[41]
  GI50: 41.6 nM
  TGI: 168 nM
[42]
  GI50: < 13 nM
  TGI: 58.1 nM
[43]
  GI50: 10.2 nM
  TGI: < 16.5 nM
[44]
  GI50: 117 nM
  TGI: 673 nM
[45]
  TGI: 26 nM
[46]
  GI50: 24.5 nM
  TGI: 228 nM
[47]
  GI50: 18.2 nM
  TGI: 63.1 nM
[48]
  GI50: 296 nM
  TGI: 3130 nM
[49]
  GI50: 19.9 nM
  TGI: 122 nM
[50]
  GI50: 469 nM
  TGI: 1700 nM
[51]
  GI50: 147 nM
  TGI: 482 nM
[53]
  GI50: 154 nM
  TGI: 1540 nM
[54]
  GI50: 40.1 nM
  TGI: 255 nM
[55]
  TGI: 800 nM
[56]
  GI50: 19.8 nM
  TGI: 100 nM
[57]
  GI50: 15.9 nM
  TGI: 253 nM
[60]
  GI50: 48.3 nM
  TGI: 143 nM
[58]
  GI50: 82 nM
  TGI: 326 nM
[59]
  GI50: 219 nM
  TGI: 529 nM
